Assay results from patent US20040266871A1, “Methods for treating alzheimer's disease using quinaldoyl-amine derivatives of oxo-and hydroxy-substituted hydrocarbons” (priority 2001, published 2004).

Structure (SMILES): CC(C)(C)OC(=O)NN(C[C@H](O)[C@H](Cc1ccccc1)NC(=O)OCc1ccccc1)C1CCCCC1 [Example 31, t-Butyl 3-cyclohexyl-3-[(2S, 3S)-2-hydroxy-3-(phenylmethoxycarbonyl)amino-4-phenylbutyl]carbazate]
- melting point: 142 to 143 °C
